Our source for the IC50, CC50 and selectivity ratio values is ChEMBL document CHEMBL5257159, “Insights into targeting SARS-CoV-2: design, synthesis, in silico studies and antiviral evaluation of new dimethylxanthine derivatives” (RSC Med Chem, 2023).

In data set [1] the target is Replicase polyprotein 1ab (Severe acute respiratory syndrome coronavirus 2, UniProt P0DTD1). The data set can be described thus: Inhibition of recombinant SARS-CoV-2 main protease expressed in Escherichia coli BL21 using Dabcyl-EDANS and Boc-Abu-Tle-Leu-Gln-AMC as substrate.
Data set [2] relates to SARS-CoV-2. The data set can be described thus: Antiviral activity against SARS-CoV-2 NRC-03-nhCoV infected in african green monkey Vero E6 cells assessed as inhibition of virus-induced cytopathic effect measured after 72 hrs by crystal violet staining based assay. In kind it is functional, organism-based. As to conditions: Severe acute respiratory syndrome coronavirus 2, NRC-03-nhCoV, Vero C1008, 72 h.

A short description of data set [3]: Cytotoxicity against African green monkey Vero E6 cells measured after 72 hrs by MTT assay. The data set is classed as toxicity, cell-based, Vero C1008. As to conditions: chlorocebus sabaeus.
Data set [4] is described as follows: Selectivity index, ratio of CC50 for african green monkey Vero E6 cells to IC50 for antiviral activity against SARS-CoV-2 NRC-03-nhCoV infected in african green monkey Vero E6 cells. As to conditions: read-out: Ratio CC50/IC50. The data set is classed as toxicity, Vero C1008.

For the compound `Cn1c(=O)c2c(nc3n(CC#Cc4ccc(Cl)c(Cl)c4)ccn23)n(C)c1=O`, in data set [1], the half-inhibitory concentration (IC50) (as a rule, the concentration that gives 50% inhibition) came to 4.7 µM.

As to `CCC(CC)COC(=O)[C@H](C)N[P@](=O)(OC[C@H]1O[C@@](C#N)(c2ccc3c(N)ncnn23)[C@H](O)[C@@H]1O)Oc1ccccc1`, the IC50 in data set [2] is 10.1 µM. Moreover, the CC50 (usually the concentration at which the toxic effect on the cells reaches its halfway point) at 72 h in data set [3] turned out to be 0.608 mM.

Turning to `Cn1c(=O)c2c(nc3n2CC=C(O)N3c2ccc(S(N)(=O)=O)cc2)n(C)c1=O`, the IC50 in data set [2] was determined as 16 µM. Moreover, in data set [4], the selectivity ratio amounted to 127. In addition, in data set [3], the 50% cytotoxic concentration (CC50) at 72 h was determined as 2.04 mM.
